# Results as given in patent publication US12527833B2, “Pharmaceutical composition made from hydrophobic phytochemicals dispersed in sesame oil to enhance bioactivity” (ARJUNA NATURAL PVT. LTD., priority 2017, dated 2026).
# Columns and labels:
# [1] = test system: Carrageenan induced paw oedema; test: Carrageenan paw oedema in rats: Boswellia extract, sesame oil and their combinations (Example 8); type: in vivo
# Method: The animals were housed in polypropylene cages and maintained under standard animal house conditions (12:12 hour light/dark cycle at 24±2° C. and 45-65% relative humidity). The rats had free access to standard pellet diet and water. […] were divided into 9 groups comprising of 3 rats in each group. The rats were deprived of food, but had free access to drinking water for 12 h prior to the experiment. The treatment was as follows: • Group 1: Untreated control. • Group 2: 10 mg/Kg Diclofenac. • Group 3: 20 mg/Kg Hydrophobic Boswellia extract with 2% AKBA (made as per example 2). • Group 4: 20 mg/Kg Hydrophobic Boswellia extract with 10% AKBA (made as per example 1). • Group 5: 30 mg/Kg Sesame seed oil about 0.9% sesame lignans. • Group 6: 50 mg/Kg Simple blend of Boswellia extract with 2% AKBA with Sesame seed oil with 10% sesame lignans (made as per example 6; using AKBA2). • Group 7: 50 mg/Kg Homogenized dispersion of hydrophobic Boswellia extract with 2% AKBA with sesame oil with 10% sesame lignans. (Made as per example 4). • Group 8: 50 mg/Kg Simple hydrophobic Boswellia extract with 10% AKBA with sesame oil with 10% sesame lignans. (Made as per example 6, F1). • Group 9: 50 mg/Kg Homogenized dispersion hydrophobic Boswellia extract with 10% AKBA with sesame oil with 10% sesame lignans. (Made as per example 4). After 12 hour fasting, baseline paw volume was recorded for each rat using digital plethysmometer (Ugo Basile, […]). Carrageenan (0.1 ml of 1%) in saline (0.9% NaCl) was injected into the plantar surface of the right hind paw of the animals. The experimental groups were given the designated extract/standard orally, 30 minutes prior to the injection of the carrageenan. […] The oedema was expressed as an increase in the volume of paw from baseline value, and the percentage of inhibition for each rat was calculated.
# [2] = test system: Carrageenan induced paw edema; test: Carrageenan paw edema in rats: Boswellia dispersion at different SSA values (Example 9); type: in vivo
# Method: The animals were housed in polypropylene cages and maintained under standard animal house conditions (12:12 hour light/dark cycle at 24±2° C. and 45-65% relative humidity). The rats had free access to standard pellet diet and water. 15 rats were divided into 5 groups comprising of 3 rats in each group. The rats were deprived of food, but had free access to drinking water for 12 h prior to the experiment. The treatment was as follows: After 12 hour fasting, baseline paw volume was recorded for each rat using digital plethysmometer (Ugo Basile, […]). Carrageenan (0.1 ml of 1%) in saline (0.9% NaCl) was injected into the plantar surface of the right hind paw of the animals. The experimental groups were given the designated extract/standard orally, 30 minutes prior to the injection of the carrageenan. After injection of carrageenan, paw volume was recorded at 3 hr to 6 hr post carrageenan. The edema was expressed as an increase in the volume of paw from baseline value, and the percentage of inhibition for each rat was calculated. • Group 1: 50 mg/Kg BS-1 (SSA 200-500 m^2/kg). • Group 2: 50 mg/Kg, BS-2 (SSA 700-1000 m^2/kg) • Group 3: 50 mg/Kg BS-3 (SSA 1100-1200 m^2/kg) • Group 4: 50 mg/Kg BS-4 (SSA>1300 m^2/kg) • Group 5: 10 mg/Kg Diclofenac.
# [3] = test system: Carrageenan Induced Paw Edema; test: Anti-inflammatory activity in carrageenan induced paw edema in rats (Example 11); type: in vivo, SD rats; details: 6 h after carrageenan; oral; dose per group 10-100 mg/Kg; 6 rats per group
# Method: SD rats (M/F) weighing 180-220 gm. were selected for the study. The animals were acclimatized for a period of five days and they were fed with standard pellet diet and water ad libitum. After five days of acclimatization, the rats were deprived of food, but had free access to drinking water for 12 hours prior to the experiment. Right hind paw of each rat was marked at the tibio-tarsal junction and baseline paw volume was determined using a digital plethysmometer (UGO BASILE, ITALY). Rats were divided into different groups keeping 6 rats in each group. Test sample/standard NSAID/vehicle was fed orally at designated dose. After 30 minutes of test sample/standard/vehicle, 0.1 ml carrageenan (1% suspension in 0.9% NaCl) was injected to the animals in subplantar region of the right hind paw. The paw volume was again determined for all the animals at 6 h after carrageenan injection and percentage inhibition was calculated by using following formula: […]
smiles,measurement,setting,value
O=C(O)Cc1ccccc1Nc1c(Cl)cccc1Cl [Diclofenac],percentage inhibition 1 h,"[1]; 1 h post carrageenan, oral, dose per group 10-50 mg/Kg",64%
same,percentage inhibition 3 h,"[1]; 3 h post carrageenan, oral, dose per group 10-50 mg/Kg",84%
same,percentage inhibition 5 h,"[1]; 5 h post carrageenan, oral, dose per group 10-50 mg/Kg",93%
same,percentage inhibition 6 h,"[1]; 6 h post carrageenan, oral, dose per group 10-50 mg/Kg",97%
same,Average percentage inhibition,"[1]; average of 1, 3, 5, 6 h",85%
same,Percentage inhibition (%) 3HR,"[2]; 3 hr post carrageenan, oral, BS samples 50 mg/kg, Diclofenac 10 mg/kg",68%
same,Percentage inhibition (%) 6HR,"[2]; 6 hr post carrageenan, oral, BS samples 50 mg/kg, Diclofenac 10 mg/kg",94%
same,Avrage percentage inhibition,[2]; average of 3HR and 6HR,81%
same,Percentage inhibition in 6 Hours,[3],86%
